The record followed here is patent publication US20100210617A1, “Aryl-Alkylamines And Heteroaryl-Alkylamines As Protein Kinase Inhibitors” (ASTEX THERAPEUTICS LIMITED, priority 2005, published 2010).

Experiment [1] addresses T1, protein kinase B (PKB), fusion protein PKB-PIF (Homo sapiens, UniProt P31751).
T1 construct: made in house
The experiment is described as follows: Measurement of PKB kinase inhibitory activity (IC50). It counts as biochemical. As to conditions: 0.6 nM enzyme, 30 μM ATP/γ33P-ATP, 25 μM AKTide-2T substrate, 20 minutes; read-out: IC50, concentration required to inhibit 50% of the PKB activity. The protocol:
The inhibition of protein kinase B (PKB) activity by compounds can be determined essentially as described by Andjelkovic et al. (Mol. Cell. Biol. 19, 5061-5072 (1999)) but using a fusion protein described as PKB-PIF and described in full by Yang et al (Nature Structural Biology 9, 940-944 (2002)). […] A final concentration of 0.6 nM enzyme is used in a buffer that includes 20 mM MOPS pH 7.2, 30 μM ATP/γ^33P-ATP and 25 μM substrate. Compounds are added in DMSO solution to a final DMSO concentration of 2.5%. The reaction is allowed to proceed for 20 minutes before addition of excess orthophosphoric acid to quench activity. The reaction mixture is transferred to a phosphocellulose filter plate where the peptide binds and the unused ATP is washed away. After washing, scintillant is added and the incorporated activity measured by scintillation counting.
The % inhibition of the PKB activity is calculated and plotted in order to determine the concentration of test compound required to inhibit 50% of the PKB activity (IC50).

The target of experiment [2] is T2, PKA catalytic domain (Homo sapiens, UniProt P17612).
T2 construct: using the PKA catalytic domain from Upstate Biotechnology (#14-440); purchased Upstate Biotechnology 14-440
The experiment is described as follows: Measurement of PKA kinase inhibitory activity (IC50). It counts as biochemical. As to conditions: 1 nM enzyme, 40 μM ATP/γ33P-ATP, 5 μM peptide substrate […], 20 minutes; read-out: IC50, concentration required to inhibit 50% of the PKA activity. The protocol: A final concentration of 1 nM enzyme is used in a buffer that includes 20 mM MOPS pH 7.2, 40 μM ATP/γ^33P-ATP and 5 μM substrate. Compounds are added in dimethylsulphoxide (DMSO) solution to a final DMSO concentration of 2.5%. The reaction is allowed to proceed for 20 minutes before addition of excess orthophosphoric acid to quench activity. Unincorporated γ^33P-ATP is then separated from phosphorylated proteins on a Millipore MAPH filter plate. The plates are washed, scintillant is added and the plates are then subjected to counting on a Packard Topcount.

Structures can show the parent of a compound that is named as a salt.

T1 sequence (P31751 with tags, fused parts or gaps limits assumed): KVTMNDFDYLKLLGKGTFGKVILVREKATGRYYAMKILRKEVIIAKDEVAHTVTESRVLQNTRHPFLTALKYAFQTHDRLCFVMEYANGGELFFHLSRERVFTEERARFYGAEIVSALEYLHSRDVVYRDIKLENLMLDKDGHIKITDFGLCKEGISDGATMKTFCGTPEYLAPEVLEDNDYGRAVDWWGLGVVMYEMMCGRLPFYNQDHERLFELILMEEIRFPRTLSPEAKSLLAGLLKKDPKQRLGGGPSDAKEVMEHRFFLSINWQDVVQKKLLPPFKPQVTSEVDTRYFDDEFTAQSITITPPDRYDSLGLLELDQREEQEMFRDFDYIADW

Regarding `c1cc(C2(c3ccc4c(c3)OCCO4)CCNCC2)ccc1-c1cn[nH]c1` [Example 83, 4-(2,3-Dihydro-benzo[1,4]dioxin-6-yl)-4-[4-(1H-pyrazol-4-yl)-phenyl]-piperidine], the IC50 in experiment [1] and in experiment [2] was less than 100 nM throughout.
For the molecule `CN(C)c1cccc(C2(c3ccc(-c4cn[nH]c4)cc3)CCNCC2)c1` [Example 89, Dimethyl-(3-{4-[4-(1H-pyrazol-4-yl)-phenyl]-piperidin-4-yl}-phenyl)-amine], the IC50 in experiment [1] and in experiment [2] was less than 1000 nM each time.
`NCC[C@](O)(c1ccc(Cl)cc1)c1ccc(-c2cn[nH]c2)cc1` [Example 99B, (R)-3-Amino-1-(4-chloro-phenyl)-1-[4-(1H-pyrazol-4-yl)-phenyl]-propan-1-ol]: in experiment [1], the IC50 was less than 100 nM.
Turning to `CCc1n[nH]cc1-c1ccc(C(O)(CN)c2ccc(Cl)cc2)cc1` (stereo not shown) [Example 80, 2-Amino-1-(4-chloro-phenyl)-1-[4-(3-ethyl-1H-pyrazol-4-yl)-phenyl]-ethanol], the IC50 in experiment [1] and in experiment [2] was less than 100 nM each time.
In the case of `COc1ccc(C2(c3ccc(-c4cn[nH]c4)cc3)CNC2)cc1` [Example 82, 4-{-4-[3-(4-Methoxy-phenyl)-azetidin-3-yl]-phenyl}-1H-pyrazole formate], the IC50 in experiment [1] and in experiment [2] was less than 1000 nM throughout.
For `CCc1[nH]ncc1-c1ccc(C2(c3ccc(Cl)cc3)CCNCC2)cc1` [Example 87, 4-(4-Chloro-phenyl)-4-[4-(5-ethyl-1H-pyrazol-4-yl)-phenyl]-piperidine], the IC50 in experiment [1] and in experiment [2] was less than 1000 nM in each case.
Take `NCCC(O)(c1ccc(-c2cn[nH]c2)cc1)c1ccc(Cl)c(Cl)c1` (stereo not shown) [Example 96, 3-Amino-1-(3,4,-dichlorophenyl)-1-[4-(1H-pyrazol-4-yl)-phenyl]-propan-1-ol]: the IC50 in experiment [1] and in experiment [2] was less than 100 nM in each case.
With `NCCC(O)(c1ccc(Cl)cc1)c1ccc(-c2cn[nH]c2)cc1F` (stereo not shown) [Example 94, 3-Amino-1-(4-chlorophenyl)-1-[2-fluoro-4-(1H-pyrazol-4-yl)-phenyl]-propan-1-ol-acetic acid salt], the IC50 in experiment [1] and in experiment [2] was less than 100 nM each time.
With `COc1ccc(C2(c3ccc(-c4cn[nH]c4)cc3)CCNCC2)cn1` [Example 90, 4-(2-Methoxy-5-pyridin-yl)-4-[4-(1H-pyrazol-4-yl)-phenyl]-piperidine], the IC50 in experiment [1] is less than 1000 nM; in experiment [2] it was less than 100 nM.
Regarding `NCCC(O)(c1ccc(-c2cn[nH]c2)cc1)c1ccc(Cl)c(F)c1` (stereo not shown) [Example 95, 3-Amino-1-(4-chloro-3-fluoro-phenyl)-1-[4-(1H-pyrazol-4-yl)-phenyl]-propan-1-ol], the IC50 in experiment [1] and in experiment [2] was less than 100 nM throughout.
For `NCCC(c1ccc(-c2cn[nH]c2)cc1)c1ccc(Cl)c(F)c1` (stereo not shown) [Example 1, 3-(4-Chloro-3-fluoro-phenyl)-3-[4-(1H-pyrazol-4-yl)-phenyl]-propylamine], the IC50 in experiment [1] and in experiment [2] was less than 100 nM throughout.
In the case of `NCC[C@@](O)(c1ccc(Cl)cc1)c1ccc(-c2cn[nH]c2)cc1` [Example 99A, (S)-3-Amino-1-(4-chloro-phenyl)-1-[4-(1H-pyrazol-4-yl)-phenyl]-propan-1-ol], the IC50 in experiment [1] and in experiment [2] was less than 100 nM throughout.
Take `Cc1n[nH]cc1-c1ccc(C2(COc3cccc(-c4nc5ccccc5o4)c3)CCNCC2)cc1` [Example 93, 2-(3-{4-[4-(3-Methyl-1H-pyrazol-4-yl)-phenyl]-piperidin-4-ylmethoxy}-phenyl)-benzooxazole]: the IC50 in experiment [1] was less than 100 nM.
On to `NCCC(O)(c1ccc(Cl)cc1)c1ccc(-c2cn[nH]c2)cc1` (racemic) [Example 92, 3-Amino-1-(4-chloro-phenyl)-1-[4-(1H-pyrazol-4-yl)-phenyl]-propan-1-ol], for which the IC50 in experiment [1] and in experiment [2] was less than 100 nM in each case.
Turning to `Clc1cccc(C2(c3ccc(-c4cn[nH]c4)cc3)CCNCC2)c1` [Example 84, 4-(3-Chloro-phenyl)-4-[4-(1H-pyrazol-4-yl)-phenyl]-piperidine], the IC50 in experiment [1] and in experiment [2] was less than 100 nM each time.
As for `Clc1ccc(C2(c3ccc(-c4cn[nH]c4)cc3)CCNC2)cc1` (stereo not shown) [Example 81, 4-{4-[3-(4-Chloro-phenyl)-pyrrolidin-3-yl]-phenyl}-1H-pyrazole formate], the IC50 in experiment [1] and in experiment [2] was less than 1000 nM each time.
On to `COc1cccc(OCC2(c3ccc(-c4c[nH]nc4C)cc3)CCNCC2)c1` [Example 77, 4-(3-Methoxy-phenoxymethyl)-4-[4-(3-methyl-1H-pyrazol-4-yl)-phenyl]-piperidine], for which the IC50 in experiment [1] and in experiment [2] was less than 1000 nM each time.
For the molecule `NCC(O)(c1ccc(Cl)cc1)c1ccc(-c2cn[nH]c2)cn1` (stereo not shown) [Example 91, 2-Amino-1-(4-chloro-phenyl)-[5-(1H-pyrazol-4-yl)-pyridin-2-yl]-ethanol hydrochloride], the results for the IC50 in experiment [1] and in experiment [2] were less than 1000 nM and less than 100 nM, respectively.
For `Clc1ccc(C2(c3ccc(-c4cn[nH]c4C4CC4)cc3)CCNCC2)cc1` [Example 88, 4-(4-Chloro-phenyl)-4-[4-(5-cyclopropyl-1H-pyrazol-4-yl)-phenyl]-piperidine] the same measures were less than 100 nM and less than 1000 nM.
For `Cc1n[nH]cc1-c1ccc(C(O)(CN)c2ccc(Cl)cc2)cc1` (stereo not shown) [Example 79, 2-Amino-1-(4-chloro-phenyl)-1-[4-(3-methyl-1H-pyrazol-4-yl)-phenyl]-ethanol] the same measures were less than 100 nM and less than 100 nM.
For `COc1ccc(-c2cccc(C3(c4ccc(-c5cn[nH]c5)cc4)CCNCC3)c2)cc1` [Example 85, 4-(4′-Methoxy-biphenyl-3-yl)-4-[4-(1H-pyrazol-4-yl)-phenyl]-piperidine dihydrochloride] the same measures were less than 1000 nM and less than 100 nM.
For `COc1ccc(C2(c3ccc(-c4c[nH]nc4C)cc3)CCNCC2)cc1` [Example 86, 4-(4-Methoxy-phenyl)-4-[4-(3-methyl-1H-pyrazol-4-yl)-phenyl]piperidine dihydrochloride], the IC50 in experiment [1] and in experiment [2] was less than 100 nM in each case.
As to `NCC[C@H](c1ccc(-c2cn[nH]c2)cc1)c1ccc(Cl)c(Cl)c1` [Example 2, (R)-3-(3,4-Dichloro-phenyl)-3-[4-(1H-pyrazol-4-yl)-phenyl]-propylamine], in experiment [1], the IC50 is less than 100 nM.
